The text below walks through data of article PMC12029309, “Synthesis and Antifungal Activity of 1,2,4-Oxadiazole Derivatives” (Molecules, 2025).

≈ marks a conversion by molar mass, not a printed value. Where two headings read alike, the source gives them in different places.

One data set deals with R. solani. The data set can be described thus: microbe, parasite or virus in culture. Format: cell-based. The following applies: Rhizoctonia solani; for EC50: read-out: EC50 (μg/mL) R. solani; for inhibition at 50 µg/mL: read-out: The Inhibition Rate (%) R. solani.
The test system of another data set is E. turcicum. The data set can be described thus: Mycelial growth inhibition test in vitro (E. turcicum). Format: cell-based. The settings on record: Exserohilum turcicum; for EC50: read-out: EC50 (μg/mL) E. turcicum; for inhibition at 50 µg/mL: 50 μg/mL, mean ± SD of three replicates, read-out: The Inhibition Rate (%) E. turcicum.
Data set [1] relates to C. capsica. The data set can be described thus: Antifungal activity in vivo: protective effect on detached pepper infected by C. capsica. Also on record: species or system Colletotrichum capsica. As for the experimental part:
The protective effects of compounds 4q and 4f and carbendazim on pepper infected by […] studied. […] The peppers were washed with water and dried, and the surface was wiped with 75% ethanol for sterilization. The infected area was pricked with a diameter of 4 mm on the surface of the green pepper with a sterile inoculation needle. After spraying the antifungus compound solution on the surface and resting for 12 h, the activated cake (4 mm in diameter) was inoculated into the infected area. After culturing at 25 °C for 1 to 7 days, the plaque diameter was measured by the cross method, and the efficacy was calculated according to Formula (2).(2) Control efficacy%=A-B/A-C×100% • A: The average diameter of the blank medium colony. • B: The average diameter of the colonies in the medium containing compound. • C: Diameter of mushroom cake (3 mm/4 mm).

Data set [2] concerns C. capsica. The data set can be described thus: Mycelial growth inhibition test in vitro (C. capsica). The settings on record: Colletotrichum; for EC50: read-out: EC50 (μg/mL) C. capsica; for inhibition at 50 µg/mL: 50 μg/mL, mean ± SD of three replicates, read-out: The Inhibition Rate (%) C. capsica. In kind it is cell-based. The protocol: The antifungal activity of the target compound was tested by the mycelial growth inhibition rate method. The compounds were detected at a concentration of 50 μg/mL, and carbendazim was used as the positive control. The antifungal activity was carried out according to literature reports. After drilling the mycelium (3 mm), it was inoculated into the PDA medium containing compounds, and the Petri dish was put into the incubator at 25 °C for 12-48 h; then, the colony diameter was measured with 50 index vernier caliper by the cross method, and the data were recorded. […] • A: The average diameter of the blank medium colony. • B: Diameter of mushroom cake (3 mm). • C: The average diameter of the colonies in the medium containing compound. […] The PDA medium containing different concentrations of the compound was prepared by the two-fold dilution method, the final concentration of the compound in the medium was adjusted to 0-100.00 μg/mL, and three parallel samples were set for each concentration. […] The toxicity regression equation of the tested compound was obtained, taking the logarithm of compound concentration (lgc) as the independent variable (x) and the probability value of inhibition rate as the dependent variable (y), and the EC50 value of each tested compound was calculated.

A further data set relates to F. graminearum. The data set can be described thus: microbe, parasite or virus in culture. The settings on record: Fusarium graminearum; for EC50: read-out: EC50 (μg/mL) F. graminearum; for inhibition at 50 µg/mL: read-out: The Inhibition Rate (%) F. graminearum. Format: cell-based.
The next data set concerns B. cinerea. Briefly: Mycelial growth inhibition test in vitro (B. cinerea). Format: cell-based. The following applies: Botrytis cinerea; 50 μg/mL, mean ± SD of three replicates; read-out: The Inhibition Rate (%) B. cinerea. The protocol:
The antifungal activity of the target compound was tested by the mycelial growth inhibition rate method. The compounds were detected at a concentration of 50 μg/mL, and carbendazim was used as the positive control. The antifungal activity was carried out according to literature reports. After drilling the mycelium (3 mm), it was inoculated into the PDA medium containing compounds, and the Petri dish was put into the incubator at 25 °C for 12-48 h; then, the colony diameter was measured with 50 index vernier caliper by the cross method, and the data were recorded. […] • A: The average diameter of the blank medium colony. • B: Diameter of mushroom cake (3 mm). • C: The average diameter of the colonies in the medium containing compound.

For the next data set, the system named is MCF-7 cell line. The data set can be described thus: MTT cytotoxicity evaluation on MCF-7 cells. Format: cell-based. The settings on record: 100 μM, 24 h. The protocol:
(§1) Cells were incubated at 37 °C in an incubator with 5% CO2. Cell viability was determined using the MTT assay. Briefly, MCF-7 cell lines were seeded at 5000–8000 cells/well in 96-well plates. […] Following a continuous 24 h of incubation, the culture medium was replaced by 90 μL fresh culture medium, and 10 μL MTT solution was added.

A short description of data set [3]: MTT cytotoxicity evaluation on MCF-7 cells. Format: cell-based. The settings on record: human, range 0~100 μM. As for the experimental part:
as §1

On to `COC(=O)Nc1nc2ccccc2[nH]1` [carbendazim, reference compound], for which the EC50 turned out to be 1.1 µg/mL (≈ 5.75 µM) in the data set with R. solani; 110 µg/mL (≈ 573 µM) with E. turcicum; 0.22 µg/mL (≈ 1.15 µM) in the data set with C. capsica [2] (mycelial growth, 0–100.00 μg/mL two-fold dilution); 19.6 µg/mL (≈ 102 µM) in the data set with F. graminearum. Moreover, the “Control efficacy (%)” value with C. capsica [1] (500 μg/mL, 5 days) was 100%; in the data set on C. capsica [1] (1000 μg/mL, 5 days), 100%.

As usually defined, the inhibition is the change of the read-out against control, counted positive when it falls. As for `Oc1ccc(-c2nc(-c3ccccc3)no2)cc1O` [Compound 4f, 4-(3-Phenyl-1,2,4-oxadiazol-5-yl) benzene-1,2-diol], the EC50 in the data set with R. solani amounted to 12.7 µg/mL (≈ 49.9 µM); in the data set on E. turcicum, 29.1 µg/mL (≈ 115 µM); in the data set with C. capsica [2], 8.81 µg/mL (≈ 34.7 µM); with F. graminearum, 30 µg/mL (≈ 118 µM). Besides, the inhibition at 50 µg/mL came to 80.9 ± 2.4% in the data set on R. solani; 85.7 ± 1.97% in the data set with E. turcicum; 38.9 ± 5.35% in the data set with B. cinerea; 86.8 ± 3.11% with C. capsica [2]; 100% in the data set on F. graminearum. In addition, the “Control efficacy (%)” value in the data set with C. capsica [1] (500 μg/mL, 5 days) is listed as 100%; with C. capsica [1] (1000 μg/mL, 3 day) it was 100%.

As for `COc1ccc(-c2noc(-c3cc(O)cc(O)c3)n2)cc1OC` [Compound 4p, 5-(3-(3,4-Dimethoxyphenyl)-1,2,4-oxadiazol-5-yl)benzene-1,3-diol], the inhibition at 50 µg/mL was below 10% in the data set with R. solani; 11.2 ± 1.91% in the data set with E. turcicum; below 10% in the data set with B. cinerea; 0% in the data set with C. capsica [2]; below 10% with F. graminearum. Moreover, the “cell survival rate of MCF-7 cells” value with MCF-7 cell line is “significant cell proliferation”.

On to `COc1ccc(-c2noc(/C=C/c3ccccc3)n2)cc1OC` [Compound 5e, (E)-3-(3,4-Dimethoxyphenyl)-5-styryl-1,2,4-oxadiazole], for which the inhibition at 50 µg/mL in the data set on R. solani was 23.9 ± 0.59%; in the data set on E. turcicum it was 29.4 ± 2.05%; with B. cinerea, 30.6 ± 1.43%; in the data set with C. capsica [2], below 10%; in the data set on F. graminearum, 28.7 ± 5.14%. In addition, the “cell survival rate of MCF-7 cells” value in the data set with MCF-7 cell line is given as “significant cell proliferation”.

Take `COc1ccc(-c2noc(-c3ccc(C(C)(C)C)cc3)n2)cc1` [Compound 4l, 5-(4-(tert-Butyl)phenyl)-3-(4-methoxyphenyl)-1,2,4-oxadiazole]: the inhibition at 50 µg/mL was below 10% in the data set on R. solani; 24.2 ± 3.77% in the data set with E. turcicum; below 10% in the data set on B. cinerea; below 10% in the data set on C. capsica [2]; 27.6 ± 1.78% with F. graminearum. Further, the “cell survival rate of MCF-7 cells” value in the data set on MCF-7 cell line is reported as “significant cell proliferation”.

On to `COc1ccc(-c2nc(-c3cc(OC)c(OC)c(OC)c3)no2)cc1OC` [Compound 4t, 5-(3,4-Dimethoxyphenyl)-3-(3,4,5-trimethoxyphenyl)-1,2,4-oxadiazole], for which the inhibition at 50 µg/mL in the data set on R. solani was below 10%; with E. turcicum it was below 10%; in the data set on B. cinerea it was below 10%; in the data set on F. graminearum it was 28.3 ± 2.19%. The “cell survival rate of MCF-7 cells” value in the data set on MCF-7 cell line is “significant cell proliferation”.

Usually IC50 stands for the midpoint of a concentration-inhibition curve. Low values mean higher potency, high ones lower potency. In the case of `COc1ccc(-c2noc(-c3ccc(O)c(O)c3)n2)cc1OC` [Compound 4q, 4-(3-(3,4-Dimethoxyphenyl)-1,2,4-oxadiazol-5-yl)benzene-1,2-diol], the EC50 was determined as 38.9 µg/mL (≈ 124 µM) in the data set on R. solani, 229 µg/mL (≈ 729 µM) in the data set with E. turcicum, 41.7 µg/mL (≈ 133 µM) with C. capsica [2] and 149 µg/mL (≈ 475 µM) with F. graminearum. The inhibition at 50 µg/mL in the data set with R. solani turned out to be 47.8 ± 8.13%; in the data set with E. turcicum it was 43.5 ± 0.99%; in the data set with B. cinerea it was 32.8 ± 12.2%; in the data set with C. capsica [2], 55.5 ± 1.34%; in the data set on F. graminearum, 43.5 ± 3.7%. The “Control efficacy (%)” value in the data set with C. capsica [1] (500 μg/mL, 5 days) is reported as 50.12%; in the data set with C. capsica [1] (1000 μg/mL, 5 days) it was 76.83%. This molecule also had a half-maximal inhibitory concentration (IC50) at 24 h in data set [3] of at least 100 µM.
